Measurements from ChEMBL document CHEMBL3217570, “A class of novel AA-Trp-Trp-OBzl: synthesis, in vitro anti-proliferation, in vivo anti-tumor action, and intercalation mechanism” (Medchemcomm, 2011).
Calls of active or inactive are those of the source. No cut-off for these calls is given here. Residues, ends and D or L forms follow the SMILES beside them. *: point of attachment. OBn = c1ccc(CO*)cc1

Assays:
CCRF S-180 [1] = assay: Antiproliferative activity against mouse S180 cells after 48 hrs by MTT assay; type: functional, cell-based; conditions: CCRF S-180, 48 h
K562 = assay: Antiproliferative activity against human K562 cells after 48 hrs by MTT assay; type: functional, cell-based; conditions: K562, 48 h
B16 = assay: Antiproliferative activity against mouse B16 cells after 48 hrs by MTT assay; type: functional, cell-based; conditions: B16, 48 h
H22 = assay: Antiproliferative activity against mouse H22 cells after 48 hrs by MTT assay; type: functional, cell-based; conditions: H22, 48 h
HepG2 = assay: Antiproliferative activity against human HepG2 cells after 48 hrs by MTT assay; type: functional, cell-based; conditions: HepG2, 48 h
CCRF S-180 [2] = assay: Antitumor activity against mouse S180 cells allografted in ICR mouse assessed as tumor growth inhibition at 8.9 mg/kg, ip qd for 7 days relative to control; type: functional; conditions: CCRF S-180, ip, 168 h, route intraperitoneal, read-out: TGI
Mus musculus [3] = assay: Toxicity in mouse S180 cells allografted ICR mouse assessed as liver weight at 8.9 mg/kg, ip qd for 7 days relative to control; type: organism-based, CCRF S-180; parameters: dose 8.9 mg/kg, route intraperitoneal; conditions: in vivo, 168 h
Mus musculus [4] = assay: Toxicity in mouse S180 cells allografted ICR mouse assessed as brain weight at 8.9 mg/kg, ip qd for 7 days relative to control; type: organism-based, CCRF S-180; parameters: dose 8.9 mg/kg, route intraperitoneal; conditions: in vivo, 168 h
Mus musculus [5] = assay: Toxicity in mouse S180 cells allografted ICR mouse assessed as kidney weight at 8.9 mg/kg, ip qd for 7 days relative to control; type: organism-based, CCRF S-180; parameters: dose 8.9 mg/kg, route intraperitoneal; conditions: in vivo, 168 h
Mus musculus [6] = assay: Toxicity in mouse S180 cells allografted ICR mouse assessed as spleen index at 8.9 mg/kg, ip qd for 7 days relative to control; type: organism-based, CCRF S-180; parameters: dose 8.9 mg/kg, route intraperitoneal; conditions: in vivo, 168 h
Mus musculus [7] = assay: Toxicity in mouse S180 cells allografted ICR mouse assessed as increase of body weight at 8.9 mg/kg, ip qd for 7 days relative to control; type: organism-based, CCRF S-180; parameters: dose 8.9 mg/kg, route intraperitoneal; conditions: in vivo, 168 h
CCRF S-180 [8] = assay: Antitumor activity against mouse S180 cells allografted in ip dosed ICR mouse assessed as tumor growth inhibition administered qd for 7 days relative to control; type: functional, organism-based
CCRF S-180 [9] = assay: Antitumor activity against mouse S180 cells allografted in ICR mouse assessed as tumor growth inhibition at 0.89 mg/kg, ip qd for 7 days relative to control; type: functional; conditions: CCRF S-180, ip, 168 h, route intraperitoneal, read-out: TGI
CCRF S-180 [10] = assay: Antitumor activity against mouse S180 cells allografted in ICR mouse assessed as tumor growth inhibition at 0.089 mg/kg, ip qd for 7 days relative to control; type: functional; conditions: CCRF S-180, ip, 168 h, route intraperitoneal, read-out: TGI
Mus musculus [11] = assay: Neurotoxicity in ICR mouse assessed as neurotoxic behavior up to 500 mg/kg, ip after 7 days; type: toxicity, organism-based; parameters: dose 500 mg/kg, route intraperitoneal; conditions: in vivo, 168 h
Mus musculus [12] = assay: Toxicity in ICR mouse assessed as mortality up to 500 mg/kg, ip after 7 days; type: organism-based; parameters: dose 500 mg/kg, route intraperitoneal; conditions: in vivo, 168 h
Mus musculus [13] = assay: Toxicity in ICR mouse assessed as changes in organs up to 500 mg/kg, ip after 7 days by necropsy analysis; type: organism-based; parameters: dose 500 mg/kg, route intraperitoneal; conditions: in vivo, 168 h
[14] = Acute toxicity in ip dosed ICR mouse after 7 days; type: organism-based; conditions: in vivo
Calf thymus DNA [15] = assay: Binding affinity to 70 uM of calf thymus DNA assessed as decrease in fluorescence intensity at 50 uM by fluorescence spectra analysis; type: nucleic-acid assay; parameters: scale not given: the % may be the effect or the level left; conditions: Bos taurus
Calf thymus DNA [16] = assay: Binding affinity to 10 to 70 uM of calf thymus DNA assessed as decrease in fluorescence intensity at 50 uM by fluorescence spectra analysis; type: nucleic-acid assay; conditions: Bos taurus
Calf thymus DNA [17] = assay: Binding affinity to calf thymus DNA assessed as increase of DNA […] at compound-DNA ratio up to 0.36; type: nucleic-acid assay; conditions: Bos taurus
Calf thymus DNA [18] = assay: Binding affinity to calf thymus DNA assessed as melting temperature at 10 uM; type: nucleic-acid assay; conditions: Bos taurus

Compound	IC50 (CCRF S-180 [1]) [µM]	IC50 (K562) [µM]	IC50 (B16) [µM]	IC50 (H22) [µM]	IC50 (HepG2) [µM]	inhibition in vivo at 8.9 mg/kg (CCRF S-180 [2]) [%]	Activity (Mus musculus [3])	Activity (Mus musculus [4])	Activity (Mus musculus [5])	Activity (Mus musculus [6])	Activity (Mus musculus [7])	Activity (Mus musculus [11])	Activity (Mus musculus [12])	Activity (Mus musculus [13])	LD50 at 168 h [14] [mg/kg]	further results
NC(=O)C[C@H](N)C(=O)N[C@@H](Cc1c[nH]c2ccccc12)C(=O)N[C@@H](Cc1c[nH]c2ccccc12)C(=O)OCc1ccccc1 (H-Asn-Trp-Trp-OBn)	13.5	11	13.8	11	11.9	85.1	Non-toxic	Non-toxic	Non-toxic	Non-toxic	Toxic	Non-toxic	Non-toxic	Non-toxic	> 500	TGI (CCRF S-180 [8]): Dose-dependent effect; inhibition in vivo at 0.89 mg/kg (CCRF S-180 [9]): 46.7%; inhibition in vivo at 0.089 mg/kg (CCRF S-180 [10]): 26.6%; Activity (Calf thymus DNA [15]): 35.3%; Activity (Calf thymus DNA [16]): Active; Activity (Calf thymus DNA [17]): Active; Tm (Calf thymus DNA [18]): 20.8 °C
CC[C@H](C)[C@H](N)C(=O)N[C@@H](Cc1c[nH]c2ccccc12)C(=O)N[C@@H](Cc1c[nH]c2ccccc12)C(=O)OCc1ccccc1 (H-Ile-Trp-Trp-OBn)	15.1	16.2	17.2	16.1	15.1	80.1	Non-toxic	Non-toxic	Non-toxic	Non-toxic	Toxic	Non-toxic	Non-toxic	Non-toxic	> 500	–
CSCC[C@H](N)C(=O)N[C@@H](Cc1c[nH]c2ccccc12)C(=O)N[C@@H](Cc1c[nH]c2ccccc12)C(=O)OCc1ccccc1 (H-Met-Trp-Trp-OBn)	19.8	17	25.2	17.5	24.3	61.5	Non-toxic	Non-toxic	Non-toxic	Non-toxic	Toxic	Non-toxic	Non-toxic	Non-toxic	> 500	–
N[C@@H](Cc1ccccc1)C(=O)N[C@@H](Cc1c[nH]c2ccccc12)C(=O)N[C@@H](Cc1c[nH]c2ccccc12)C(=O)OCc1ccccc1 (H-Phe-Trp-Trp-OBn)	34	43.7	34	37.6	41.2	24.7	Non-toxic	Non-toxic	Non-toxic	Non-toxic	Toxic	Non-toxic	Non-toxic	Non-toxic	> 500	–
N[C@@H](CO)C(=O)N[C@@H](Cc1c[nH]c2ccccc12)C(=O)N[C@@H](Cc1c[nH]c2ccccc12)C(=O)OCc1ccccc1 (H-Ser-Trp-Trp-OBn)	26.3	25.6	48.4	25.2	25.9	48.2	Non-toxic	Non-toxic	Non-toxic	Non-toxic	Toxic	Non-toxic	Non-toxic	Non-toxic	> 500	–
N[C@@H](Cc1ccc(O)cc1)C(=O)N[C@@H](Cc1c[nH]c2ccccc12)C(=O)N[C@@H](Cc1c[nH]c2ccccc12)C(=O)OCc1ccccc1 (H-Tyr-Trp-Trp-OBn)	22.9	21.3	24.8	23	23.6	53.4	Non-toxic	Non-toxic	Non-toxic	Non-toxic	Toxic	Non-toxic	Non-toxic	Non-toxic	> 500	–
CC(C)[C@H](N)C(=O)N[C@@H](Cc1c[nH]c2ccccc12)C(=O)N[C@@H](Cc1c[nH]c2ccccc12)C(=O)OCc1ccccc1 (H-Val-Trp-Trp-OBn)	36.1	40.4	50.1	36	37.4	33.5	Non-toxic	Non-toxic	Non-toxic	Non-toxic	Toxic	Non-toxic	Non-toxic	Non-toxic	> 500	–
Nc1ccn([C@@H]2O[C@H](CO)[C@@H](O)[C@@H]2O)c(=O)n1 [CYTARABINE]	40.3	43.6	49.2	37.8	38.1	31.9	–	–	–	–	–	–	–	–	–	inhibition in vivo at 0.89 mg/kg (CCRF S-180 [9]): 20.6%; inhibition in vivo at 0.089 mg/kg (CCRF S-180 [10]): 7.86%
